One assay deals with T1, human σ2/TMEM97 receptor (Homo sapiens, UniProt Q5BJF2).
T1 construct: expressed in transfected cells; host or cells: HEK-293
The assay can be described thus: Binding assay to human σ2/TMEM97 receptor ([3H]-DTG). Particulars: transfected HEK-293 membranes, 10 nM [3H]-DTG, 25° C. 120 minutes; read-out: Binding σ-2. Here is the method:
Transfected HEK-293 membranes (15 μg) were incubated with 10 nM [^3H]-1,3-Di-o-tolylguanidine (DTG) in assay buffer containing Tris-HCl 50 mM at pH 8.0. NSB (non-specific binding) was measured by adding 10 μM haloperidol. The binding of the test compound was measured at either one concentration (% inhibition at 1 or 10 μM) or five different concentrations to determine affinity values (Ki). Plates were incubated at 25° C. for 120 minutes. After the incubation period, the reaction mix was transferred to MultiScreen HTS, FC plates (Millipore), filtered and washed 3 times with ice-cold 10 mM Tris-HCL (pH 8.0). Filters were dried and counted at approximately 40% efficiency in a MicroBeta scintillation counter (Perkin-Elmer) using EcoScint liquid scintillation cocktail.

The next assay has as its target T2, human σ1 receptor (Homo sapiens, UniProt Q99720).
T2 construct: expressed in transfected cells; host or cells: HEK-293
The assay can be described thus: Human σ1 receptor radioligand assay ([3H](+)-pentazocine). Particulars: transfected HEK-293 membranes, 5 nM [3H](+)-pentazocine, 37° C. 120 minutes; read-out: Binding σ-1. Here is the method:
Transfected HEK-293 membranes (7 μg) were incubated with 5 nM of [^3H](+)-pentazocine in assay buffer containing Tris-HCl 50 mM at pH 8. NBS (non-specific binding) was measured by adding 10 μM haloperidol. The binding of the test compound was measured at either one concentration (% inhibition at 1 or 10 μM) or five different concentrations to determine affinity values (Ki). Plates were incubated at 37° C. for 120 minutes. After the incubation period, the reaction mix was then transferred to MultiScreen HTS, FC plates (Millipore), filtered and plates were washed 3 times with ice-cold 10 mM Tris-HCL (pH 7.4). Filters were dried and counted at approximately 40% efficiency in a MicroBeta scintillation counter (Perkin-Elmer) using EcoScint liquid scintillation cocktail.

The record followed here is patent US20240217959A1, “New (Homo)Piperidinyl Heterocycles as Sigma Ligands” (ACONDICIONAMIENTO TARRASENSE, priority 2021, published 2024).

T1 sequence (Q5BJF2 whole entry): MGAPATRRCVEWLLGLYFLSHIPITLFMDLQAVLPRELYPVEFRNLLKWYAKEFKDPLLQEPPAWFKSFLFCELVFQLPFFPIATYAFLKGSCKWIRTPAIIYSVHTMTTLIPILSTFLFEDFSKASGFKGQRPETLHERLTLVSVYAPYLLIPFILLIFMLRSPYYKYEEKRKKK
T2 sequence (Q99720 whole entry): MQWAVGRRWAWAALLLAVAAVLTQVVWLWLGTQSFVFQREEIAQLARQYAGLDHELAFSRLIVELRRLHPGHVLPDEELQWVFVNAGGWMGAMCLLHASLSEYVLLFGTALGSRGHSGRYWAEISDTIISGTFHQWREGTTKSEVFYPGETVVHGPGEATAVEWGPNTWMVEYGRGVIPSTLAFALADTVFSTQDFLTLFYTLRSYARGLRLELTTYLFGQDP

In the case of `CCc1ncc(-c2cc(C)no2)c(C2CCN(CC(=O)N3CCC(F)(F)CC3)CC2)n1` [Example 6, 1-(4,4-Difluoropiperidin-1-yl)-2-(4-(2-ethyl-5-(3-methylisoxazol-5-yl)pyrimidin-4-yl)piperidin-1-yl)ethanone], the Ki on human σ2/TMEM97 receptor was less than 100 nM; on human σ1 receptor it was 500 to 1000 nM.
As for `CCc1ncc(-c2cc(C)no2)c(C2CCN(CC(=O)N3CCCN(C)CC3)CC2)n1` [Example 7, 2-(4-(2-Ethyl-5-(3-methylisoxazol-5-yl)pyrimidin-4-yl)piperidin-1-yl)-1-(4-methyl-1,4-diazepan-1-yl)ethanone], the Ki on human σ2/TMEM97 receptor was less than 100 nM; on human σ1 receptor, greater than 1000 nM.
Take `CCc1ncc(-c2nccn2C)c(C2CCN(CC(=O)N3CCOCC3)CC2)n1` [Example 16, 2-(4-(2-Ethyl-5-(1-methyl-1H-imidazol-2-yl)pyrimidin-4-yl)piperidin-1-yl)-1-morpholinoethan-1-one]: the Ki at human σ2/TMEM97 receptor was 500 to 1000 nM; at human σ1 receptor, greater than 1000 nM.
On the same counts, the results for `CCc1ncc(-c2cc(C)no2)c(C2CCN(CC(=O)N3CCCOCC3)CC2)n1` [Example 3, 2-(4-(2-Ethyl-5-(3-methylisoxazol-5-yl)pyrimidin-4-yl)piperidin-1-yl)-1-(1,4-oxazepan-4-yl)ethanone] are less than 100 nM and greater than 1000 nM.
As to `Cc1cc(-c2cnc(C(C)C)nc2C2CCN(CC(=O)N3CCOCC3)CC2)on1` [Example 2, 2-(4-(2-Isopropyl-5-(3-methylisoxazol-5-yl)pyrimidin-4-yl)piperidin-1-yl)-1-morpholinoethanone], the Ki at human σ2/TMEM97 receptor was less than 100 nM; at human σ1 receptor, greater than 1000 nM.
The corresponding values for `CCc1ncc(-c2cc(C)no2)c(C2CCN(CC(=O)N3CCC4(CCOC4)CC3)CC2)n1` [Example 4, 2-(4-(2-Ethyl-5-(3-methylisoxazol-5-yl)pyrimidin-4-yl)piperidin-1-yl)-1-(2-oxa-8-azaspiro[4.5]decan-8-yl)ethanone] are less than 100 nM and greater than 1000 nM.
The corresponding values for `CCc1ncc(-c2cc(C)no2)c(C2CCN(CCN3CCOCC3)CC2)n1` [Example 10, 4-(2-(4-(2-Ethyl-5-(3-methylisoxazol-5-yl)pyrimidin-4-yl)piperidin-1-yl)ethyl)morpholine] are less than 100 nM and 100 to 500 nM.
Regarding `CCc1ncc(-c2cc(C)no2)c(C2CCN(CC(=O)N3CCCCC3)CC2)n1` [Example 11, 2-(4-(2-Ethyl-5-(3-methylisoxazol-5-yl)pyrimidin-4-yl)piperidin-1-yl)-1-(piperidin-1-yl)ethan-1-one], the results for the Ki at human σ2/TMEM97 receptor and at human σ1 receptor were less than 100 nM and 500 to 1000 nM, respectively.
The corresponding values for `Cc1cc(-c2cnc(C3CC3)nc2C2CCN(CC(=O)N3CCOCC3)CC2)on1` [Example 1, 2-(4-(2-Cyclopropyl-5-(3-methylisoxazol-5-yl)pyrimidin-4-yl)piperidin-1-yl)-1-morpholinoethanone] are less than 100 nM and 500 to 1000 nM.
Turning to `CCc1ncc(-c2ccccn2)c(C2CCN(CC(=O)N3CCOCC3)CC2)n1` [Example 13, 2-(4-(2-Ethyl-5-(pyridin-2-yl)pyrimidin-4-yl)piperidin-1-yl)-1-morpholinoethan-1-one], the Ki at human σ2/TMEM97 receptor is 100 to 500 nM; at human σ1 receptor, greater than 1000 nM.
With `CCCc1ncc(-c2cc(C)no2)c(C2CCN(CC(=O)N3CCOCC3)CC2)n1` [Example 12, 2-(4-(5-(3-Methylisoxazol-5-yl)-2-propylpyrimidin-4-yl)piperidin-1-yl)-1-morpholinoethan-1-one], the Ki on human σ2/TMEM97 receptor is less than 100 nM; at human σ1 receptor, greater than 1000 nM.
With `Cc1ccc(-c2ccnc(C)n2)c(C2CCN(CC(=O)N3CCOCC3)CC2)n1` [Example 19, 2-(4-(6-Methyl-3-(2-methylpyrimidin-4-yl)pyridin-2-yl)piperidin-1-yl)-1-morpholinoethan-1-one], the Ki on human σ2/TMEM97 receptor and on human σ1 receptor was 500 to 1000 nM in each case.
With `CCc1ncc(-c2cc(C)no2)c([C@H]2CCCN(CC(=O)N3CCOCC3)CC2)n1` [Example 18, (S)-2-(4-(2-Ethyl-5-(3-methylisoxazol-5-yl)pyrimidin-4-yl)azepan-1-yl)-1-morpholinoethan-1-one], the Ki was less than 100 nM on human σ2/TMEM97 receptor and 500 to 1000 nM on human σ1 receptor.
On the same counts, the results for `CCc1ncc(-c2ccncc2)c(C2CCN(CC(=O)N3CCOCC3)CC2)n1` [Example 15, 2-(4-(2-Ethyl-5-(pyridin-4-yl)pyrimidin-4-yl)piperidin-1-yl)-1-morpholinoethan-1-one] are 500 to 1000 nM and 500 to 1000 nM.
On to `CCc1ncc(-c2cc(C)no2)c([C@@H]2CCCN(CC(=O)N3CCOCC3)CC2)n1` [Example 17, (R)-2-(4-(2-Ethyl-5-(3-methylisoxazol-5-yl)pyrimidin-4-yl)azepan-1-yl)-1-morpholinoethan-1-one], for which the Ki on human σ2/TMEM97 receptor and on human σ1 receptor was 100 to 500 nM in each case.
Regarding `CCc1ncc(-c2cc(C)no2)c(C2CCN(CCC(=O)N3CCOCC3)CC2)n1` [Example 9, 3-(4-(2-Ethyl-5-(3-methylisoxazol-5-yl)pyrimidin-4-yl)piperidin-1-yl)-1-morpholinopropan-1-one], the Ki at human σ2/TMEM97 receptor is less than 100 nM; on human σ1 receptor, greater than 1000 nM.
Take `CCc1ncc(-c2cccc(C)n2)c(C2CCN(CC(=O)N3CCOCC3)CC2)n1` [Example 14, 2-(4-(2-Ethyl-5-(6-methylpyridin-2-yl)pyrimidin-4-yl)piperidin-1-yl)-1-morpholinoethan-1-one]: the values for the Ki on human σ2/TMEM97 receptor and on human σ1 receptor were 100 to 500 nM and greater than 1000 nM, respectively.
The corresponding values for `Cc1cc(-c2cnc(C(F)(F)F)nc2C2CCN(CC(=O)N3CCOCC3)CC2)on1` [Example 8, 2-(4-(5-(3-Methylisoxazol-5-yl)-2-(trifluoromethyl)pyrimidin-4-yl)piperidin-1-yl)-1-morpholinoethanone] are less than 100 nM and greater than 1000 nM.
Turning to `CCc1ncc(-c2cc(C)no2)c(C2CCN(CC(=O)N3CCOCC3)CC2)n1` [Example 5, 2-(4-(2-Ethyl-5-(3-methylisoxazol-5-yl)pyrimidin-4-yl)piperidin-1-yl)-1-morpholinoethanone], the Ki was less than 100 nM on human σ2/TMEM97 receptor and greater than 1000 nM on human σ1 receptor.
